This data set deals with CCRIS mutagenicity, Ames/micronucleus/aberration tests. The data set can be described thus: CCRIS mutagenicity studies.
Where [1] appears, read: Test System: AMES SALMONELLA TYPHIMURIUM, Strain/Indicator: TA98, Metabolic Activation: NONE, Method: PREINCUBATION
Setting [2] is: Test System: AMES SALMONELLA TYPHIMURIUM, Strain/Indicator: TA100, Metabolic Activation: NONE, Method: PREINCUBATION

The results in this text go back to PubChem BioAssay AID1259407 (Chemical Carcinogenesis Research Information System (CCRIS), 2018).

SMILES strings stand for the structures. The source made the active and inactive calls. No rule for the calls is given here.

Consider `CC(O)CN` (stereo not drawn), for which the mutagenic call is “inactive; negative” (Test System: AMES SALMONELLA TYPHIMURIUM, Strain/Indicator: TA98, Metabolic Activation: HAMSTER, LIVER, S-9, AROCLOR 1254 (10%), Method: PREINCUBATION); “inactive; negative” under setting [1]; “inactive; negative” (Test System: AMES SALMONELLA TYPHIMURIUM, Strain/Indicator: TA98, Metabolic Activation: RAT, LIVER, S-9, AROCLOR 1254 (10%), Method: PREINCUBATION); “inactive; negative” (Test System: AMES SALMONELLA TYPHIMURIUM, Strain/Indicator: TA98, Metabolic Activation: RAT, LIVER, S-9, KC 500, Method: PREINCUBATION); “inactive; negative” (Test System: AMES SALMONELLA TYPHIMURIUM, Strain/Indicator: TA100, Metabolic Activation: HAMSTER, LIVER, S-9, AROCLOR 1254 (10%), Method: PREINCUBATION); “inactive; negative” under setting [2]. Further, the mutagenic call runs as follows: (Test System: AMES SALMONELLA TYPHIMURIUM, Strain/Indicator: TA100, Metabolic Activation: RAT, LIVER, S-9, AROCLOR 1254 (10%), Method: PREINCUBATION) “inactive; negative”; (Test System: AMES SALMONELLA TYPHIMURIUM, Strain/Indicator: TA100, Metabolic Activation: RAT, LIVER, S-9, KC 500, Method: PREINCUBATION) “inactive; negative”; (Test System: AMES SALMONELLA TYPHIMURIUM, Strain/Indicator: TA1535, Metabolic Activation: HAMSTER, LIVER, S-9, AROCLOR 1254 (10%), Method: PREINCUBATION) “active; positive”; (Test System: AMES SALMONELLA TYPHIMURIUM, Strain/Indicator: TA1535, Metabolic Activation: NONE, Method: PREINCUBATION) “inactive; negative”; (Test System: AMES SALMONELLA TYPHIMURIUM, Strain/Indicator: TA1535, Metabolic Activation: RAT, LIVER, S-9, AROCLOR 1254 (10%), Method: PREINCUBATION) “active; positive”; (Test System: AMES SALMONELLA TYPHIMURIUM, Strain/Indicator: TA1535, Metabolic Activation: RAT, LIVER, S-9, KC 500, Method: PREINCUBATION) “inactive; negative”. Moreover, the mutagenic call is, setting by setting: (Test System: AMES SALMONELLA TYPHIMURIUM, Strain/Indicator: TA1537, Metabolic Activation: HAMSTER, LIVER, S-9, AROCLOR 1254 (10%), Method: PREINCUBATION) “inactive; negative”; (Test System: AMES SALMONELLA TYPHIMURIUM, Strain/Indicator: TA1537, Metabolic Activation: NONE, Method: PREINCUBATION) “inactive; negative”; (Test System: AMES SALMONELLA TYPHIMURIUM, Strain/Indicator: TA1537, Metabolic Activation: RAT, LIVER, S-9, AROCLOR 1254 (10%), Method: PREINCUBATION) “inactive; negative”; (Test System: AMES SALMONELLA TYPHIMURIUM, Strain/Indicator: TA1537, Metabolic Activation: RAT, LIVER, S-9, KC 500, Method: PREINCUBATION) “inactive; negative”; (Test System: AMES SALMONELLA TYPHIMURIUM, Strain/Indicator: TA1538, Metabolic Activation: NONE, Method: PREINCUBATION) “inactive; negative”; (Test System: AMES SALMONELLA TYPHIMURIUM, Strain/Indicator: TA1538, Metabolic Activation: RAT, LIVER, S-9, KC 500, Method: PREINCUBATION) “inactive; negative”. The mutagenic call is “inactive; negative” (Test System: Ames Salmonella typhimurium, Strain/Indicator: TA98, Metabolic Activation: None, Method: Preincubation); “inactive; negative” (Test System: Ames Salmonella typhimurium, Strain/Indicator: TA98, Metabolic Activation: Rat, Liver, S9, Sodium phenobarbital and 5,6-benzoflavone (10%), Method: Preincubation); “inactive; negative” (Test System: Ames Salmonella typhimurium, Strain/Indicator: TA100, Metabolic Activation: None, Method: Preincubation); “inactive; negative” (Test System: Ames Salmonella typhimurium, Strain/Indicator: TA100, Metabolic Activation: Rat, Liver, S9, Sodium phenobarbital and 5,6-benzoflavone (10%), Method: Preincubation); “inactive; negative” (Test System: Ames Salmonella typhimurium, Strain/Indicator: TA1535, Metabolic Activation: None, Method: Preincubation); “inactive; negative” (Test System: Ames Salmonella typhimurium, Strain/Indicator: TA1535, Metabolic Activation: Rat, Liver, S9, Sodium phenobarbital and 5,6-benzoflavone (10%), Method: Preincubation). Moreover, the mutagenic call was “inactive; negative” (Test System: Ames Salmonella typhimurium, Strain/Indicator: TA1537, Metabolic Activation: None, Method: Preincubation); “inactive; negative” (Test System: Ames Salmonella typhimurium, Strain/Indicator: TA1537, Metabolic Activation: Rat, Liver, S9, Sodium phenobarbital and 5,6-benzoflavone (10%), Method: Preincubation); “inactive; negative” (Test System: E. COLI, Strain/Indicator: WP2 UVRA, Metabolic Activation: NONE, Method: PREINCUBATION); “inactive; negative” (Test System: E. COLI, Strain/Indicator: WP2 UVRA, Metabolic Activation: RAT, LIVER, S-9, KC 500, Method: PREINCUBATION); “inactive; negative” (Test System: E. coli, Strain/Indicator: WP2uvrA/pKM101, Metabolic Activation: None, Method: Preincubation); “inactive; negative” (Test System: E. coli, Strain/Indicator: WP2uvrA/pKM101, Metabolic Activation: Rat, Liver, S9, Sodium phenobarbital and 5,6-benzoflavone (10%), Method: Preincubation).

Take `Cc1c2c(cc3c1ccc1ccccc13)C=C[C@@H](O)[C@@H]2O`: the mutagenic call (Test System: CHINESE HAMSTER V-79, Strain/Indicator: V-79/8-AZAGUANINE, Metabolic Activation: NONE, Method: STANDARD PLATE) was “active; positive”.

Regarding `COc1cc2oc(-c3ccc(O)cc3)c(O)c(=O)c2cc1OC`, the mutagenic call by setting is: under setting [1], “inactive; negative”; (Test System: AMES SALMONELLA TYPHIMURIUM, Strain/Indicator: TA98, Metabolic Activation: RAT LIVER S-9, SODIUM BARBITAL AND BETA-NAPHTHAFLAVONE, Method: PREINCUBATION) “inactive; negative”; under setting [2], “inactive; negative”; (Test System: AMES SALMONELLA TYPHIMURIUM, Strain/Indicator: TA100, Metabolic Activation: RAT LIVER S-9, SODIUM BARBITAL AND BETA-NAPHTHAFLAVONE, Method: PREINCUBATION) “inactive; negative”.

For the molecule `Oc1ccc(N=Nc2ccccn2)c(O)c1`, the mutagenic call runs as follows: (End Point: Mouse lymphoma, Test System: L5178Y (TK+/TK-)/trifluorothymidine, Metabolic Activation: None, Method: Suspension/plate) “inactive; negative”; (End Point: Mouse lymphoma, Test System: L5178Y (TK+/TK-)/trifluorothymidine, Metabolic Activation: Rat, Liver, S-9, Method: Suspension/plate) “inactive; negative”; (Test System: Ames Salmonella typhimurium, Strain/Indicator: TA98, Metabolic Activation: None) “inactive; negative”; (Test System: Ames Salmonella typhimurium, Strain/Indicator: TA98, Metabolic Activation: Rat, Liver, S-9) “inactive; negative”; (Test System: Ames Salmonella typhimurium, Strain/Indicator: TA100, Metabolic Activation: None) “inactive; negative”; (Test System: Ames Salmonella typhimurium, Strain/Indicator: TA100, Metabolic Activation: Rat, Liver, S-9) “inactive; negative”. Moreover, the mutagenic call is, setting by setting: (Test System: Ames Salmonella typhimurium, Strain/Indicator: TA1535, Metabolic Activation: None) “inactive; negative”; (Test System: Ames Salmonella typhimurium, Strain/Indicator: TA1535, Metabolic Activation: Rat, Liver, S-9) “inactive; negative”; (Test System: Ames Salmonella typhimurium, Strain/Indicator: TA1537, Metabolic Activation: None) “inactive; negative”; (Test System: Ames Salmonella typhimurium, Strain/Indicator: TA1537, Metabolic Activation: Rat, Liver, S-9) “inactive; negative”.

In the case of `C=C1C[C@@]23CC[C@H]4[C@@](C)(CCC[C@@]4(C)C(=O)O[C@@H]4O[C@H](CO)[C@@H](O)[C@H](O)[C@H]4O)[C@@H]2CC[C@]1(O[C@@H]1O[C@H](CO)[C@@H](O)[C@H](O)[C@H]1O[C@@H]1O[C@@H](C)[C@H](O)[C@@H](O)[C@H]1O)C3`, the mutagenic call (Test System: AMES SALMONELLA TYPHIMURIUM, Strain/Indicator: TM677, Metabolic Activation: RAT, LIVER, S-9, AROCLOR 1254, Method: PREINCUBATION) is “inactive; negative”.

Consider `O=NN(CCCl)C(=O)NCCO`, for which the mutagenic call (Test System: AMES SALMONELLA TYPHIMURIUM, Strain/Indicator: TA1535, Metabolic Activation: NONE, Method: STANDARD PLATE) is “active; positive”.

With `COC(=O)c1cc2c([nH]c3ccccc32)c(-c2ccc3c(n2)C(=O)C=CC3=O)n1`, the mutagenic call reads like this: (Test System: AMES SALMONELLA TYPHIMURIUM, Strain/Indicator: TA100, Metabolic Activation: NONE, Method: STANDARD PLATE) “active; positive”; (Test System: AMES SALMONELLA TYPHIMURIUM, Strain/Indicator: TA100, Metabolic Activation: RAT, LIVER, S-9, PCB, Method: STANDARD PLATE) “active; positive”.

On to `O=C/C=C/c1ccccc1[N+](=O)[O-]`, for which the mutagenic call under setting [2] is “active; positive” and the mutagenic call (Test System: AMES SALMONELLA TYPHIMURIUM, Strain/Indicator: TA100, Metabolic Activation: RAT, LIVER, S-9, AROCLOR 1254, Method: PREINCUBATION) is “active; positive”.

Take `Cc1ccc(NO)c(C)c1`: the mutagenic call was “active; positive” under setting [2] and “active; positive” (Test System: AMES SALMONELLA TYPHIMURIUM, Strain/Indicator: TA100, Metabolic Activation: RAT, LIVER, S-9, PCB, Method: PREINCUBATION).
